ChEMBL document CHEMBL3137667, “[Drug-induced liver injury; fourteenth updated edition of the bibliographic database of liver injuries and related drugs]” (Gastroenterol Clin Biol, 2004)

Columns and labels:
[1] = Highest frequency of moderate liver toxicity observed during clinical trials, expressed as a percentage. [column '% BIOL' in source]; settings: human
[2] = human
[3] = human; remark: listed apart in the source
[4] = Highest frequency of acute liver toxicity observed during clinical trials, expressed as a percentage. [column '% AIGUE' in source]; settings: human
[5] = human; remark: listed apart in the source
[6] = human; remark: listed apart in the source
[7] = human; remark: listed apart in the source
[8] = human; remark: listed apart in the source
[9] = human; remark: listed apart in the source
[10] = human, serum
[11] = Times to onset, minimal and maximal, observed in the indexed observations. [column 'DELAI' in source]; settings: human
[12] = human, serum; remark: listed apart in the source
[13] = Comments (NB not yet translated). [column 'COMMENTAIRES' in source]; settings: human
[14] = human; remark: listed apart in the source
[15] = human; remark: listed apart in the source
[16] = human, serum, 4383 h
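Throughout, for Hepatotoxicity (association with vascular disease): count of indexed literature references reporting vascular liver injury in humans, e.g. peliosis hepatitis, hepatic veno-occlusive disease or Budd-Chiari syndrome.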
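Throughout, for Hepatotoxicity (benign tumour): value is a count of indexed literature references citing a benign tumour confirmed by histopathology.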
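Throughout, for Hepatotoxicity (choleostasis): human cholestatic liver injury, shown by histopathology or by peak ALT or AST elevation over alkaline phosphatase ratio below 2, value counts indexed literature reports.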
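Throughout, for Hepatotoxicity (chronic liver disease): chronic liver injury confirmed by histopathology or persistently raised serum aminotransferase activity beyond 6 months, value given as the count of indexed literature references.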
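Throughout, for Hepatotoxicity (cirrhosis): value is a count of indexed literature references reporting cirrhosis confirmed by histopathology.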
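Throughout, for Hepatotoxicity (cytolytic): human cytolytic liver injury, shown by histopathology or by a ratio above 5 of peak ALT or AST elevation to alkaline phosphatase elevation, value counts indexed references.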
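Throughout, for Hepatotoxicity (granulomatous hepatitis): value is a count of indexed literature references reporting granulomatous liver disease confirmed by histopathology.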
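Throughout, for Hepatotoxicity (malignant tumour): malignant tumour confirmed by histopathology, value gives the count of indexed literature references reporting it.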
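Throughout, for Hepatotoxicity (severe hepatitis): human clinical data: severe hepatitis, meaning potentially life-threatening liver failure or clinically observed cases, the value counts how many indexed literature references report it.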
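Throughout, for Hepatotoxicity (steatosis): steatosis confirmed by histopathology, value is the count of indexed references.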

Row | Compound | Hepatotoxicity (moderate) [1] [%] | Hepatotoxicity (steatosis) [2] | Hepatotoxicity (cytolytic) [3] | Hepatotoxicity (acute) [4] [%] | Hepatotoxicity (cirrhosis) [5] | Hepatotoxicity (benign tumour) [6] | Hepatotoxicity (association with vascular disease) [7] | Hepatotoxicity (granulomatous hepatitis) [8] | Hepatotoxicity (malignant tumour) [9] | Hepatotoxicity (acute) [10] | Hepatotoxicity (time to onset) [11] | Hepatotoxicity (moderate) [12] | Hepatotoxicity (comment) [13] | Hepatotoxicity (choleostasis) [14] | Hepatotoxicity (severe hepatitis) [15] | Hepatotoxicity (chronic liver disease) [16] | also measured
1 | Nc1nc(F)nc2c1ncn2[C@@H]1O[C@H](CO)[C@@H](O)[C@@H]1O [FLUDARABINE] | 42.9 | 0 | 1 | 0 | 0 | 0 | 0 | 0 | 0 | 2 | 8 months | 5 | REACTIVATION_HVB | 0 | 1 | 0 | 
2 | INFLIXIMAB | 31.3 | 0 | 4 | 0 | 0 | 0 | 0 | 0 | 0 | 8 | 19 days - 19 months | 3 | CHOLANGITE CHOLECYSTITE REACTIVATION_HVB | 2 | 2 | 0 | 
3 | CC(Cc1ccccc1)NN (stereo not given) [PHENIPRAZINE] | 0 | 0 | 7 | 0 | 0 | 0 | 0 | 0 | 0 | 7 | 2 weeks - 7 months | 0 | RC/NIALAMIDE/IPRONIAZIDE | 0 | 5 | 0 | 
4 | CCO.CN1CCC[C@H]1c1cccnc1 |  | 0 |  |  | 0 | 0 | 0 |  | 0 | 3 | 8 months - 10 years | 2 | CHOLANGITE |  |  | 1 | Hepatotoxicity (moderate) ([1]; Liver): 4%; Hepatotoxicity (cytolytic) ([3]; Liver): 1; Hepatotoxicity (acute) ([4]; Liver): 0%; Hepatotoxicity (granulomatous hepatitis) ([8]; Liver): 0; Hepatotoxicity (choleostasis) ([14]; Liver): 2; Hepatotoxicity (severe hepatitis) ([15]; Liver): 0
5 | C[C@]12Cc3c[nH]nc3C[C@@H]1CC[C@@H]1[C@@H]2CC[C@@]2(C)[C@H]1CC[C@]2(C)O [STANOZOLOL] | 26.1 | 0 | 2 | 0 | 0 | 3 | 0 | 0 | 2 | 6 | 1 month - 20 years | 6 | ANGIOSARCOME HNF | 4 | 1 | 0 | 
6 | Cc1ccc(O)c2ncccc12 [TILIQUINOL] | 0 | 0 | 0 | 0 | 0 | 0 | 0 | 1 | 0 | 1 | 4 days | 0 | CHOLANGITE | 0 | 0 | 0 | 
7 | CCN1CCCC1CNC(=O)c1cc(S(N)(=O)=O)ccc1OC (stereo not given) [SULPIRIDE] | 4 | 0 | 0 | 0 | 0 | 0 | 0 | 0 | 0 | 3 | 1 week - 3 months | 3 | DUCTOPENIE | 1 | 1 | 0 | 
8 | C[C@]12CC[C@H]3[C@@H](CCC4=CC(=O)CC[C@@H]43)[C@@H]1CC[C@@H]2O [NANDROLONE] | 0 | 1 | 3 | 0 | 0 | 2 | 0 | 0 | 0 | 7 | 4 months - 12 years | 0 | CHOLESTASE_PROLONGEE | 1 | 0 | 0 | 
9 | CSc1ccc2c(c1)N(CCC1CCCCN1C)c1ccccc1S2 (stereo not given) [THIORIDAZINE] |  | 0 | 2 |  | 0 | 0 | 0 | 0 | 0 | 5 | 1 week - 1 year | 2 | RC/CHLORPROMAZINE | 5 |  | 1 | Hepatotoxicity (moderate) ([1]; Liver): 0%; Hepatotoxicity (acute) ([4]; Liver): 0%; Hepatotoxicity (severe hepatitis) ([15]; Liver): 1
10 | O=C1CCC(N2C(=O)c3ccccc3C2=O)C(=O)N1 (stereo not given) [THALIDOMIDE] | 5.6 | 0 | 2 | 0 | 0 | 0 | 0 | 0 | 0 | 2 | 5 days - 7 months | 3 | REACTIVATION_HVC | 0 | 0 | 0 | 
